Results on four molecules are retold here after ChEMBL document CHEMBL1145783, “Development of an orexin-2 receptor selective agonist, [Ala(11), D-Leu(15)]orexin-B” (Bioorg Med Chem Lett, 2003).

Experiment [1] concerns the target T1, Orexin/Hypocretin receptor type 1 (Homo sapiens) (UniProt O43613).
T1 sequence (whole entry): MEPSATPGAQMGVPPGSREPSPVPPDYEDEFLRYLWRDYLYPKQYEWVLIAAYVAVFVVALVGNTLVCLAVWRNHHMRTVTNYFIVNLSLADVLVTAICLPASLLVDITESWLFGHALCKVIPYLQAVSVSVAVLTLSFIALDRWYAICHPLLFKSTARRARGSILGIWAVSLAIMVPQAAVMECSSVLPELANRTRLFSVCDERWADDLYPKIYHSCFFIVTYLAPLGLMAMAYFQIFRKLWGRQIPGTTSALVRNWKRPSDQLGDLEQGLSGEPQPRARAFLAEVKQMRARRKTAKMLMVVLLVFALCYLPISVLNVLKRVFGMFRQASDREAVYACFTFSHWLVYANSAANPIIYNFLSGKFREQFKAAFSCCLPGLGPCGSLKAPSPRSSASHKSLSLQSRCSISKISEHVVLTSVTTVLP
The experiment is described as follows: Agonist activity against human orexin 1 receptor; EC50; nM. The class given is functional.

For experiment [2], the species on record is Homo sapiens. The experiment is described as follows: (§1) Agonist selectivity for orexin receptor 1 versus orexin receptor 2. The class given is functional.
Experiment [3] has as its target T2, Orexin receptor type 2 (Homo sapiens) (UniProt O43614).
T2 sequence (whole entry): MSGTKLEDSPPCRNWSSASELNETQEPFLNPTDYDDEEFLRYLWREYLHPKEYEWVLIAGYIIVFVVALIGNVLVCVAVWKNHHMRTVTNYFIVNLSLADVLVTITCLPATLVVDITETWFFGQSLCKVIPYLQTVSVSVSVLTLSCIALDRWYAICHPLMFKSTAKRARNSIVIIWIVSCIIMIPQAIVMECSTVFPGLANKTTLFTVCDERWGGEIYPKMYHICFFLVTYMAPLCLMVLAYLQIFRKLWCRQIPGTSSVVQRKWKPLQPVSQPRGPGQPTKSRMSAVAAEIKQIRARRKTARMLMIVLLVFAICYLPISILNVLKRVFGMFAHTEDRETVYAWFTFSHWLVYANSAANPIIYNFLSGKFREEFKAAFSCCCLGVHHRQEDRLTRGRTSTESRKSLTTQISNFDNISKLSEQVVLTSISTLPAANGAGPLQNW
The experiment is described as follows: (§2) Agonist activity against human orexin 2 receptor; EC50; nM. Type of experiment: functional.

The nature of experiment [4]: as §1. Type of experiment: functional, Homo sapiens.
Experiment [5] addresses T3, Orexin receptor type 2 (Homo sapiens, UniProt O43614).
T3 sequence (O43614 whole entry): T2 sequence (whole entry)
The description is as §2. The class given is functional.

With `CC[C@H](C)[C@H](NC(=O)[C@H](CC(C)C)NC(=O)[C@@H](NC(=O)[C@@H](N)CCSC)[C@@H](C)O)C(=O)NCC(=O)N[C@@H](C)C(=O)N[C@@H](C)C(=O)N[C@@H](Cc1c[nH]cn1)C(=O)N[C@@H](CC(N)=O)C(=O)NCC(=O)N[C@@H](CO)C(=O)N[C@@H](C)C(=O)N[C@@H](CCC(N)=O)C(=O)N[C@@H](CC(C)C)C(=O)N[C@H](CC(C)C)C(=O)N[C@@H](CCCN=C(N)N)C(=O)N[C@@H](CCC(N)=O)C(=O)N[C@@H](C)C(=O)N[C@@H](CCCN=C(N)N)C(=O)NCC(=O)N[C@@H](CCC(N)=O)C(=O)N[C@@H](CC(C)C)C(=O)NCC(=O)N1CCC[C@H]1C(=O)N1CCC[C@H]1C(=O)NCC(=O)N[C@@H](CO)C(=O)N[C@@H](CCCN=C(N)N)C(N)=O`, the EC50 turned out to be 270 nM in experiment [1] and 1.9 nM in experiment [3]. In experiment [2], this molecule showed a selectivity of 140.

`CC[C@H](C)[C@H](NC(=O)[C@H](CC(C)C)NC(=O)[C@@H](NC(=O)[C@@H](N)CCSC)[C@@H](C)O)C(=O)NCC(=O)N[C@@H](C)C(=O)N[C@@H](C)C(=O)N[C@@H](Cc1c[nH]cn1)C(=O)N[C@@H](CC(N)=O)C(=O)NCC(=O)N[C@@H](CO)C(=O)N[C@@H](C)C(=O)N[C@@H](CCC(N)=O)C(=O)N[C@@H](CC(C)C)C(=O)N[C@@H](CC(C)C)C(=O)N[C@@H](CCCN=C(N)N)C(=O)N[C@@H](CCC(N)=O)C(=O)N[C@@H](CC(C)C)C(=O)N[C@@H](CCCN=C(N)N)C(=O)NCC(=O)N[C@@H](CCC(N)=O)C(=O)N[C@@H](CC(C)C)C(=O)NCC(=O)N1CCC[C@H]1C(=O)N1CCC[C@H]1C(=O)NCC(=O)N[C@@H](CO)C(=O)N[C@@H](CCCN=C(N)N)C(N)=O` [OREXIN B]: the EC50 in experiment [1] amounted to 0.83 nM; in experiment [3] it was 0.081 nM. The selectivity in experiment [2] and in experiment [4] was 10 throughout.

With `CC[C@H](C)[C@H](NC(=O)[C@H](CC(C)C)NC(=O)[C@@H](NC(=O)[C@@H](N)CCSC)[C@@H](C)O)C(=O)NCC(=O)N[C@@H](C)C(=O)N[C@@H](C)C(=O)N[C@@H](Cc1c[nH]cn1)C(=O)N[C@@H](CC(N)=O)C(=O)NCC(=O)N[C@@H](CO)C(=O)N[C@@H](C)C(=O)N[C@@H](CCC(N)=O)C(=O)N[C@H](CC(C)C)C(=O)N[C@@H](CC(C)C)C(=O)N[C@@H](CCCN=C(N)N)C(=O)N[C@@H](CCC(N)=O)C(=O)N[C@@H](C)C(=O)N[C@@H](CCCN=C(N)N)C(=O)NCC(=O)N[C@@H](CCC(N)=O)C(=O)N[C@@H](CC(C)C)C(=O)NCC(=O)N1CCC[C@H]1C(=O)N1CCC[C@H]1C(=O)NCC(=O)N[C@@H](CO)C(=O)N[C@@H](CCCN=C(N)N)C(N)=O`, the EC50 turned out to be 52 nM in experiment [1] and 0.13 nM in experiment [3]. For the same molecule, in experiment [2], the selectivity was found to be 400.

Molecule `CC[C@H](C)[C@H](NC(=O)[C@H](CC(C)C)NC(=O)[C@@H](NC(=O)[C@@H](N)CCSC)[C@@H](C)O)C(=O)NCC(=O)N[C@@H](C)C(=O)N[C@@H](C)C(=O)N[C@@H](Cc1c[nH]cn1)C(=O)N[C@@H](CC(N)=O)C(=O)NCC(=O)N[C@@H](CO)C(=O)N[C@@H](C)C(=O)N[C@H](CCC(N)=O)C(=O)N[C@@H](CC(C)C)C(=O)N[C@@H](CC(C)C)C(=O)N[C@@H](CCCN=C(N)N)C(=O)N[C@@H](CCC(N)=O)C(=O)N[C@@H](CC(C)C)C(=O)N[C@@H](CCCN=C(N)N)C(=O)NCC(=O)N[C@@H](CCC(N)=O)C(=O)N[C@@H](CC(C)C)C(=O)NCC(=O)N1CCC[C@H]1C(=O)N1CCC[C@H]1C(=O)NCC(=O)N[C@@H](CO)C(=O)N[C@@H](CCCN=C(N)N)C(N)=O` returned an EC50 in experiment [5] of 0.41 nM.
